# Assay results as given in ChEMBL document CHEMBL1130662, “Preparation of meta-amidino-N,N-disubstituted anilines as potent inhibitors of coagulation factor Xa” (Bioorg Med Chem Lett, 1998).
# Assays:
# Trypsin = Trypsin (Homo sapiens, UniProt P07477+P07478+P35030); experiment: Inhibition of serine protease trypsin enzyme.; type: protein assay, Oryctolagus cuniculus
# Prothrombin = Prothrombin (Homo sapiens, UniProt P00734); experiment: Inhibition of serine protease thrombin enzyme.
# Coagulation factor X [1] = target: T1, Coagulation factor X (Oryctolagus cuniculus, UniProt O19045); experiment: Inhibition of serine protease factor Xa enzyme.
# T1 sequence (O19045 whole entry): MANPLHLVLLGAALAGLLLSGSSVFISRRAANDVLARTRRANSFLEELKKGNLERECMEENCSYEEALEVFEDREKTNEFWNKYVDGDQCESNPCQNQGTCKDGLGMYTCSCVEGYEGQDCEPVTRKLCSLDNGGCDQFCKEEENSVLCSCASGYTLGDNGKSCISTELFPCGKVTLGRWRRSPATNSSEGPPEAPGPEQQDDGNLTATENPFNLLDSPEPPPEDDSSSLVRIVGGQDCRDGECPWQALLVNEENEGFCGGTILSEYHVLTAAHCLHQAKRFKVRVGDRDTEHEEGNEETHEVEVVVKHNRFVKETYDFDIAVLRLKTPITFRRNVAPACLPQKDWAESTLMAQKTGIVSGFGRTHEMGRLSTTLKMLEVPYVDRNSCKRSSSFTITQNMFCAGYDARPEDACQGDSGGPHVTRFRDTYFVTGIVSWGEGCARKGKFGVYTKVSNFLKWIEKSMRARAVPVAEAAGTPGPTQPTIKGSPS
# Coagulation factor X [2] = target: T1, Coagulation factor X; experiment: Compound was tested for the inhibition of serine protease factor Xa enzyme.
# Coagulation factor VII = target: T2, Coagulation factor VII (Homo sapiens, UniProt P08709); experiment: Compound was tested for the inhibition of serine protease factor VIIa enzyme.; parameters: species or system Oryctolagus cuniculus
# T2 sequence (P08709 whole entry): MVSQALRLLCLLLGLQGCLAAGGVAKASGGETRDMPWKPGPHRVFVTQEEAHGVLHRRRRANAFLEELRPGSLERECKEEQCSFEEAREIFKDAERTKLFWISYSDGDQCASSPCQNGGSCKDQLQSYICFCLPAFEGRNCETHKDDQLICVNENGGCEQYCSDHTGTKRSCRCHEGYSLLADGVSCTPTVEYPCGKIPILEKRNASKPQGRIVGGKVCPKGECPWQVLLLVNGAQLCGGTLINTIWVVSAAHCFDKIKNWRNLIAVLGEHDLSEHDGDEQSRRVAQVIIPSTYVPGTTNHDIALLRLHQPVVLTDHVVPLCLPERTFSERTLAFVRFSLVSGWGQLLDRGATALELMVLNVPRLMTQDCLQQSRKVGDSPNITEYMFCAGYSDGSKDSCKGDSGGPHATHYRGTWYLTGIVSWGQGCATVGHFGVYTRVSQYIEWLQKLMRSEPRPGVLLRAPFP
# Plasminogen = Plasminogen (Homo sapiens, UniProt P00747); experiment: Compound was tested for the inhibition of serine protease plasmin enzyme.; parameters: species or system Oryctolagus cuniculus
# Sequence of Plasminogen (P00747 97-580 limits assumed): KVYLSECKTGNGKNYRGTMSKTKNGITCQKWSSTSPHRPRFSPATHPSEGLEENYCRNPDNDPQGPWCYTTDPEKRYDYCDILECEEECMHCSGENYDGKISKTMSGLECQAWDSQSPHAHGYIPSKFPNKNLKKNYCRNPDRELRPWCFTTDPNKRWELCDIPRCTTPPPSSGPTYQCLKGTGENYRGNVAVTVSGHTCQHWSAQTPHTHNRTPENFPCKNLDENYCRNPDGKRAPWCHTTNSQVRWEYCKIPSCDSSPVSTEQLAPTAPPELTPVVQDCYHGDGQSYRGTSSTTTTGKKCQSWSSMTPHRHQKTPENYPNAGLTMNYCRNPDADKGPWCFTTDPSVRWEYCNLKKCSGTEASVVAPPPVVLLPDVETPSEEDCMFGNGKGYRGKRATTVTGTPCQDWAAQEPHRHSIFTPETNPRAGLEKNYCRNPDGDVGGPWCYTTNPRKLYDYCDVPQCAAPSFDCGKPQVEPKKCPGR
# Sequence of Plasminogen (P00747 581-810 limits assumed): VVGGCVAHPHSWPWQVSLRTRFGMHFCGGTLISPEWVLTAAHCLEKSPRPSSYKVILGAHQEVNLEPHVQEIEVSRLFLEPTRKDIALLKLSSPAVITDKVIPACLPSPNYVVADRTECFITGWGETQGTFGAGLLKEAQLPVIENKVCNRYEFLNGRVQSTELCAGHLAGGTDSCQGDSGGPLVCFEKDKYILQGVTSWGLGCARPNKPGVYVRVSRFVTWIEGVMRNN
# [3] = Compound was tested for the inhibition of serine protease complement factor I enzyme.; parameters: species or system Oryctolagus cuniculus
# [4] = target: Tissue-type plasminogen activator (Homo sapiens, UniProt P00750); experiment: Compound was tested for the inhibition of serine protease tissue plasminogen activator enzyme.; parameters: species or system Oryctolagus cuniculus
# Sequence of Tissue-type plasminogen activator (P00750 whole entry): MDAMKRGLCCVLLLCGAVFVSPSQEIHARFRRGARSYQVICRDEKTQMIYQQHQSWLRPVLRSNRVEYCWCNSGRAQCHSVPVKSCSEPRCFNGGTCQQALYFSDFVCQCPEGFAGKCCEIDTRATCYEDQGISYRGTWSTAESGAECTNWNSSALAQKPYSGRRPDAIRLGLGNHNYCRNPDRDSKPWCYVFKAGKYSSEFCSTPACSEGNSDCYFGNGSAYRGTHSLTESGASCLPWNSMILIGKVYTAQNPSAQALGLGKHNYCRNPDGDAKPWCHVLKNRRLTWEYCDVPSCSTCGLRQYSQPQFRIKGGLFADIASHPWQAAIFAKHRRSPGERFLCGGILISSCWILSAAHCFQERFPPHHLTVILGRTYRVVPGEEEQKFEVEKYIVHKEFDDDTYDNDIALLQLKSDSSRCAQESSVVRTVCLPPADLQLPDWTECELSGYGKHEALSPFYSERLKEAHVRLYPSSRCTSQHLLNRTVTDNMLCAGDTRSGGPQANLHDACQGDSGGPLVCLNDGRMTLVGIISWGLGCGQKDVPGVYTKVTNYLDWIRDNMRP
SMILES,Ki (Trypsin) [nM],Ki (Prothrombin) [nM],Ki (Coagulation factor X [1]) [nM],other results
COC(=O)CN(c1cccc(C(=N)N)c1)S(=O)(=O)CCc1ccc(-c2ccccc2S(N)(=O)=O)cc1.O=C(O)C(F)(F)F,180,9000,21,
N=C(N)c1cccc(N(CCCc2ccc(-c3ccccc3S(N)(=O)=O)cc2)CCOc2ccccc2)c1,,300,16,
N=C(N)c1cccc(NCCCc2ccc(-c3ccccc3S(N)(=O)=O)cc2)c1.O=C(O)C(F)(F)F,850,6100,83,
N=C(N)c1cccc(N(CCCc2ccc(-c3ccccc3S(N)(=O)=O)cc2)CC(=O)O)c1.O=C(O)C(F)(F)F,470,1400,12,
N=C(N)c1cccc(N(CCO)CCCc2ccc(-c3ccccc3S(N)(=O)=O)cc2)c1.O=C(O)C(F)(F)F,710,1800,17,
CC(C)OC(=O)CN(c1cccc(C(=N)N)c1)S(=O)(=O)CCc1ccc(-c2ccccc2S(N)(=O)=O)cc1.O=C(O)C(F)(F)F,220,15000,37,
COCCN(CCCc1ccc(-c2ccccc2S(N)(=O)=O)cc1)c1cccc(C(=N)N)c1.O=C(O)C(F)(F)F,330,900,11,
COC(=O)CC1(C(=O)Nc2ccc(-c3ccccc3S(N)(=O)=O)cc2)CC(c2cccc(C(=N)N)c2)=NO1 (stereo not given),,,6.3,
COC(=O)CC1(C(=O)Nc2ccc(C(=N)N)cc2)CC(c2cccc(C(=N)N)c2)=NO1 (stereo not given),,,94,
COC(=O)CC(CCc1ccc(C(=N)N)cc1)c1cccc(C(=N)N)c1 (stereo not given),,,34,
COC(=O)CN(CCCOc1ccc(-c2ccccc2S(N)(=O)=O)cc1)c1cccc(C(=N)N)c1.O=C(O)C(F)(F)F,77,600,6.7,
CC(C)OC(=O)CN(CCOc1ccc(-c2ccccc2S(N)(=O)=O)cc1)c1cccc(C(=N)N)c1.O=C(O)C(F)(F)F,52,300,2.1,
CC(C)OC(=O)CN(CCCc1ccc(-c2ccccc2S(N)(=O)=O)cc1)c1cccc(C(=N)N)c1.O=C(O)C(F)(F)F,74,500,7.5,
COC(=O)CN(CCc1ccc(-c2ccccc2S(N)(=O)=O)cc1)c1cccc(C(=N)N)c1.O=C(O)C(F)(F)F,56,400,10,
CC(=N)N1CC[C@H](Oc2ccc([C@H](Cc3ccc4ccc(C(=N)N)cc4c3)C(=O)O)cc2)C1 [DX-9065A],,,,IC50 (Coagulation factor X [2]): 41 nM
COC(=O)CN(CCCc1ccc(-c2ccccc2S(N)(=O)=O)cc1)c1cccc(C(=N)N)c1.O=C(O)C(F)(F)F,39,200,1.3,Ki (Coagulation factor VII): 4200 nM; Ki (Plasminogen): 300 nM; IC50 [3]: 10000 nM; Ki [4]: 33000 nM
N=C(N)c1cccc(N(CCCc2ccc(-c3ccccc3S(N)(=O)=O)cc2)CC(N)=O)c1.O=C(O)C(F)(F)F,820,3500,19,
COC(=O)CN(CCOc1ccc(-c2ccccc2S(N)(=O)=O)cc1)c1cccc(C(=N)N)c1.O=C(O)C(F)(F)F,19,200,0.53,
N=C(N)c1cccc(NS(=O)(=O)CCc2ccc(-c3ccccc3S(N)(=O)=O)cc2)c1.O=C(O)C(F)(F)F,1400,17000,51,
CC(=O)CN(CCCc1ccc(-c2ccccc2S(N)(=O)=O)cc1)c1cccc(C(=N)N)c1.O=C(O)C(F)(F)F,360,900,16,
